Data published in patent US4178442A, “Novel cinnamoyles piperazines and homopiperazines, the method of preparing them and their application in therapeutics” (Delalande S. A., priority 1977, dated 1979).
Where two headings read alike, the source gives them in different places.

Columns and labels:
[1] = in vivo; conditions: iv; for LD50: read-out: Toxicity: LD50; for mortality: read-out: Toxicity (Mortality)
Description: *LD50 or percentage of mortality which is given between brackets

[2] = system: anaesthetized dog; test: Antiangorous activity on anaesthetized dog: consumption of oxygen in the left ventricule and cardiac effort (KATZ's index); format: in vivo; conditions: for inhibition in vivo at 2.3 mg/kg / inhibition in vivo at 2.5 mg/kg / inhibition in vivo at 1.25 mg/kg / inhibition in vivo at 0.6 mg/kg / inhibition in vivo at 0.54 mg/kg / inhibition in vivo at 2.4 mg/kg: Canis lupus familiaris, iv
Procedure: The antiangorous activity was tested on an anaesthetized dog (sodium pentobarbital 30 mg/kg/i.v.).
The consumption of oxygen in the left ventricule was estimated by the product of the coronary venous flow and the coronary arteriovenous difference in oxygen (% volume).
The coronary venous flow was measured at the coronary venous sinus by means of a modified Morawitz cannula, introduced under radioscopic control.
The cardiac effort was estimated according to KATZ's index, by the product of the average arterial pressure and the cardiac frequency.
The cardiac frequency was estimated from the electrocardiogram recorded with D2 derivation.
It should be noted that the compounds tested were injected intravenously with slow perfusion.

[3] = 2.3 mg/kg i.v. slow perfusion, read-out: Diminution in consumption of O2
[4] = 2.3 mg/kg i.v. slow perfusion, read-out: Diminution in the cardiac effort (IK)
[5] = 2.5 mg/kg i.v. slow perfusion, read-out: Diminution in consumption of O2
[6] = 2.5 mg/kg i.v. slow perfusion, read-out: Diminution in the cardiac effort (IK)
[7] = 1.25 mg/kg i.v. slow perfusion, read-out: Diminution in consumption of O2
[8] = 1.25 mg/kg i.v. slow perfusion, read-out: Diminution in the cardiac effort (IK)

In the case of COc1cc(/C=C/C(=O)N2CCN(CC(O)COc3ccc4c(c3)OCO4)CC2)cc(OC)c1OC (stereo not drawn) [760 529], the LD50 [1] is reported as 115 mg/kg, the “Diminution in consumption of O2: in time” value ([2]; 2.3 mg/kg i.v. slow perfusion) is reported as 30 min and the “Diminution in the cardiac effort (IK): in time” value (shortened to “Diminution in the cardiac effort”) ([2]; 2.3 mg/kg i.v. slow perfusion) is reported as 15 min. It also gave an inhibition in vivo at 2.3 mg/kg [2, 3] of 53% and an inhibition in vivo at 2.3 mg/kg [2, 4] of 19%.

For COc1cc(/C=C/C(=O)N2CCN(CC(O)COc3ccc([N+](=O)[O-])cc3)CC2)cc(OC)c1OC (stereo not drawn) [760 538], the mortality ([1]; 185 mg/kg i.v.) was 10%, the “Diminution in consumption of O2: in time” value ([2]; 2.3 mg/kg i.v. slow perfusion) was 15 min and the “Diminution in the cardiac effort” value ([2]; 2.3 mg/kg i.v. slow perfusion) was 30 min. The inhibition in vivo at 2.3 mg/kg [2, 3] was 48% and the inhibition in vivo at 2.3 mg/kg [2, 4] was 37%.

With COc1cc(/C=C/C(=O)N2CCN(CC(O)COc3ccc(NC(C)=O)cc3)CC2)cc(OC)c1OC (stereo not drawn) [760 542] the mortality ([1]; 400 mg/kg i.v.) was 0%, the “Diminution in consumption of O2: in time” value ([2]; 2.5 mg/kg i.v. slow perfusion) was 45 min and the “Diminution in the cardiac effort” value ([2]; 2.5 mg/kg i.v. slow perfusion) was 50 min. The inhibition in vivo at 2.5 mg/kg [2, 5] was 64% and the inhibition in vivo at 2.5 mg/kg [2, 6] was 32%.

For COc1cc(/C=C/C(=O)N2CCN(CC(O)COc3c(OC)cccc3OC)CC2)cc(OC)c1OC (stereo not drawn) [760 580], the LD50 [1] was 294 mg/kg, the “Diminution in consumption of O2: in time” value ([2]; 2.3 mg/kg i.v. slow perfusion) was 30 min and the “Diminution in the cardiac effort” value ([2]; 2.3 mg/kg i.v. slow perfusion) was 15 min. For the same compound, the inhibition in vivo at 2.3 mg/kg [2, 3] was 19% and the inhibition in vivo at 2.3 mg/kg [2, 4] was 26%.

In the case of COc1cc(/C=C/C(=O)N2CCN(CC(O)COc3ccccc3F)CC2)cc(OC)c1OC (stereo not drawn) [760 619], the LD50 [1] is reported as 158 mg/kg, the “Diminution in consumption of O2: in time” value ([2]; 2.3 mg/kg i.v. slow perfusion) is reported as 30 min and the “Diminution in the cardiac effort” value ([2]; 2.3 mg/kg i.v. slow perfusion) is reported as 30 min. The inhibition in vivo at 2.3 mg/kg [2, 3] was 55% and the inhibition in vivo at 2.3 mg/kg [2, 4] was 44%.

For COc1cc(OC)cc(OCC(O)CN2CCN(C(=O)/C=C/c3cc(OC)c(OC)c(OC)c3)CC2)c1 (stereo not drawn) [760 620], the LD50 [1] was 285 mg/kg, the “Diminution in consumption of O2: in time” value ([2]; 2.5 mg/kg i.v. slow perfusion) was 30 min and the “Diminution in the cardiac effort” value ([2]; 2.5 mg/kg i.v. slow perfusion) was 30 min. It also gave an inhibition in vivo at 2.5 mg/kg [2, 5] of 22% and an inhibition in vivo at 2.5 mg/kg [2, 6] of 10%.

For COc1cc(/C=C/C(=O)N2CCCN(CC(O)COc3ccc(C(C)=O)c4c3OCCO4)CC2)cc(OC)c1OC (stereo not drawn) [760 622], the mortality ([1]; 400 mg/kg i.v.) was 40%, the “Diminution in consumption of O2: in time” value ([2]; 1.25 mg/kg i.v. slow perfusion) was 30 min and the “Diminution in the cardiac effort” value ([2]; 1.25 mg/kg i.v. slow perfusion) was 15 min. It also gave an inhibition in vivo at 1.25 mg/kg [2, 7] of 20% and an inhibition in vivo at 1.25 mg/kg [2, 8] of 17%.

For CCOC(=O)c1ccc(OCC(O)CN2CCN(C(=O)/C=C/c3cc(OC)c(OC)c(OC)c3)CC2)c2c1OCCO2 (stereo not drawn) [760 700], the mortality ([1]; 367 mg/kg i.v.) was 0%, the “Diminution in consumption of O2: in time” value ([2]; 0.6 mg/kg i.v. slow perfusion) was 45 min and the “Diminution in the cardiac effort” value ([2]; 0.6 mg/kg i.v. slow perfusion) was 60 min. For the same compound, the inhibition in vivo at 0.6 mg/kg ([2]; 0.6 mg/kg i.v. slow perfusion, read-out: Diminution in consumption of O2) was 59% and the inhibition in vivo at 0.6 mg/kg ([2]; 0.6 mg/kg i.v. slow perfusion, read-out: Diminution in the cardiac effort (IK)) was 47%.

In the case of COc1cc(/C=C/C(=O)N2CCN(CC(O)COc3ccc(CO)c4c3OCCO4)CC2)cc(OC)c1OC (stereo not drawn) [760 705], the mortality ([1]; 400 mg/kg i.v.) is reported as 20%, the “Diminution in consumption of O2: in time” value ([2]; 1.25 mg/kg i.v. slow perfusion) is reported as 38 min and the “Diminution in the cardiac effort” value ([2]; 1.25 mg/kg i.v. slow perfusion) is reported as 75 min. It also gave an inhibition in vivo at 1.25 mg/kg [2, 7] of 51% and an inhibition in vivo at 1.25 mg/kg [2, 8] of 26%.

With CNC(=O)c1ccc(OCC(O)CN2CCN(C(=O)/C=C/c3cc(OC)c(OC)c(OC)c3)CC2)c2c1OCCO2 (stereo not drawn) [760 710] the mortality ([1]; 345 mg/kg i.v.) was 70%, the “Diminution in consumption of O2: in time” value ([2]; 0.54 mg/kg i.v. slow perfusion) was 60 min and the “Diminution in the cardiac effort” value ([2]; 0.54 mg/kg i.v. slow perfusion) was 30 min. The inhibition in vivo at 0.54 mg/kg ([2]; 0.54 mg/kg i.v. slow perfusion, read-out: Diminution in consumption of O2) was 64% and the inhibition in vivo at 0.54 mg/kg ([2]; 0.54 mg/kg i.v. slow perfusion, read-out: Diminution in the cardiac effort (IK)) was 36%.

With COc1cc(/C=C/C(=O)N2CCN(CC(O)COc3cc(OC)c(OC)c(OC)c3C(C)=O)CC2)cc(OC)c1OC (stereo not drawn) [760 781] the mortality ([1]; 377 mg/kg i.v.) was 0%, the “Diminution in consumption of O2: in time” value ([2]; 2.4 mg/kg i.v. slow perfusion) was 90 min and the “Diminution in the cardiac effort” value ([2]; 2.4 mg/kg i.v. slow perfusion) was 45 min. For the same compound, the inhibition in vivo at 2.4 mg/kg ([2]; 2.4 mg/kg i.v. slow perfusion, read-out: Diminution in consumption of O2) was 70% and the inhibition in vivo at 2.4 mg/kg ([2]; 2.4 mg/kg i.v. slow perfusion, read-out: Diminution in the cardiac effort (IK)) was 15%.

In the case of COc1cc(/C=C/C(=O)N2CCN(CC(O)COc3cccc(C#N)c3)CC2)cc(OC)c1OC (stereo not drawn) [760 784], the LD50 [1] is reported as 372 mg/kg, the “Diminution in consumption of O2: in time” value ([2]; 2.3 mg/kg i.v. slow perfusion) is reported as 30 min and the “Diminution in the cardiac effort” value ([2]; 2.3 mg/kg i.v. slow perfusion) is reported as 30 min. For the same compound, the inhibition in vivo at 2.3 mg/kg [2, 3] was 44% and the inhibition in vivo at 2.3 mg/kg [2, 4] was 12%.
